In ChEMBL document CHEMBL2074169, “Contribution of organic anion transporting polypeptide to uptake of its possible substrates into rat hepatocytes” (J Pharmacol Exp Ther, 1999) one finds Activity and Km data, which are given here for three molecules.

In series [1] the target is T1, Solute carrier organic anion transporter family member 1A1 (Rattus norvegicus, UniProt P46720).
T1 sequence (P46720 whole entry): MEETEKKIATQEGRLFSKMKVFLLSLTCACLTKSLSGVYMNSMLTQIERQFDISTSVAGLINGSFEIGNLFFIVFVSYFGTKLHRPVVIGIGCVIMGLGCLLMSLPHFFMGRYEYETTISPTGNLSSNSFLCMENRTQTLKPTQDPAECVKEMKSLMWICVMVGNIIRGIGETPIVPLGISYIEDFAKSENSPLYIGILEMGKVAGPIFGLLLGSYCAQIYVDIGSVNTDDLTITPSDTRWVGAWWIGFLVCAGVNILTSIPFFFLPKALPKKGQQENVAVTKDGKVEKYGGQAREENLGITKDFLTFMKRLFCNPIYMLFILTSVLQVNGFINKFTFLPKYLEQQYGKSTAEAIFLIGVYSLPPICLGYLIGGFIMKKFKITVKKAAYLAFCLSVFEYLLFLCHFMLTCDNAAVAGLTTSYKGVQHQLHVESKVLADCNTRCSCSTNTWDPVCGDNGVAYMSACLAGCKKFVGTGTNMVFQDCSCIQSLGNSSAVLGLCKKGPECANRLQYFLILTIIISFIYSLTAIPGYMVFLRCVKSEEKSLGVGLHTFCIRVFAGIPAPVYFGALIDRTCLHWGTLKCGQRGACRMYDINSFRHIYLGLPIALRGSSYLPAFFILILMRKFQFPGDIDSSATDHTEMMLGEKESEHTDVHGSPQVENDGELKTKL
As to the kind of experiment: (§1) TP_TRANSPORTER: uptake in Oatp1-expressing COS-7 cells. Format: functional, cell-based. The following applies: monkey.

Substrate in series [2]: C[C@]12CC[C@@H]3c4ccc(O)cc4CC[C@H]3[C@@H]1CC[C@@H]2O[C@@H]1O[C@H](C(=O)O)[C@@H](O)[C@H](O)[C@H]1O
Described as §1. The class given is functional, cell-based.

Structures can show the parent of a compound that is named as a salt.

Turning to `CNc1nc2c(Cc3cccnc3)c(C)c(OS(=O)(=O)O)c(C)c2s1` [E3040 SULFATE], in series [1], the Activity entry was “substrate [+]”.

Turning to `C[C@]12CC[C@@H]3c4ccc(OS(=O)(=O)O)cc4CC[C@H]3[C@@H]1CCC2=O` [ESTRONE SULFURIC ACID], the Activity result in series [1] was “substrate [+]”.

B1: Solute carrier organic anion transporter family member 1A1 (Rattus norvegicus) (protein)
chain: MEETEKKIATQEGRLFSKMKVFLLSLTCACLTKSLSGVYMNSMLTQIERQFDISTSVAGLINGSFEIGNLFFIVFVSYFGTKLHRPVVIGIGCVIMGLGCLLMSLPHFFMGRYEYETTISPTGNLSSNSFLCMENRTQTLKPTQDPAECVKEMKSLMWICVMVGNIIRGIGETPIVPLGISYIEDFAKSENSPLYIGILEMGKVAGPIFGLLLGSYCAQIYVDIGSVNTDDLTITPSDTRWVGAWWIGFLVCAGVNILTSIPFFFLPKALPKKGQQENVAVTKDGKVEKYGGQAREENLGITKDFLTFMKRLFCNPIYMLFILTSVLQVNGFINKFTFLPKYLEQQYGKSTAEAIFLIGVYSLPPICLGYLIGGFIMKKFKITVKKAAYLAFCLSVFEYLLFLCHFMLTCDNAAVAGLTTSYKGVQHQLHVESKVLADCNTRCSCSTNTWDPVCGDNGVAYMSACLAGCKKFVGTGTNMVFQDCSCIQSLGNSSAVLGLCKKGPECANRLQYFLILTIIISFIYSLTAIPGYMVFLRCVKSEEKSLGVGLHTFCIRVFAGIPAPVYFGALIDRTCLHWGTLKCGQRGACRMYDINSFRHIYLGLPIALRGSSYLPAFFILILMRKFQFPGDIDSSATDHTEMMLGEKESEHTDVHGSPQVENDGELKTKL
As a reminder, the Km is the substrate concentration at which the rate is half of its maximum. As to B1, in series [2], the Km turned out to be 20.4 µM.
